Test results reported in patent publication US8734837B2, “Enhancement of development of oviparous species by in ovo feeding of enteric modulators” (North Carolina State University, priority 2000, dated 2014).

Legend:
Format in all cases: in vivo
[1] = Hatchability rate of turkey poults by HMB dosage injected in ovo (Example 10, FIG. 6)
Protocol: (§1) Three hundred commercial turkey eggs were stored for three weeks in a cooler at 55° F. and then placed in an egg incubator. After 24 days of incubation, eggs identified as fertile by candling the eggs were randomly assigned to 5 groups of 50 eggs. Each group of 50 eggs was then injected into the air cell at a depth of 0.25 inches with a 0.10 ml saline (0.89% NaCl) solution containing 0, 0.1, 1.0, 10.0, and 100.0 milligrams of Ca-HMB.
(§2) After injection, the eggs were placed in hatching baskets such that each treatment was equally represented in each location of the incubator. Hatched poults were recovered from the incubator at 28 days of incubation and the number of hatched poults per treatment group recorded. The hatched poults were then sacrificed and blood glucose was determined in accordance with known techniques (see Donaldson and Christensen, Comp. Biochem. Physiol. 98A, 347-350 (1991)). Livers were removed and glycogen content of each liver was determined by known techniques (see Dreiling et al., Meat Sci. 20, 167-177 (1987)).

[2] = Liver glycogen of turkey poults by HMB dosage injected in ovo (Example 10, FIG. 7); settings: turkey poults at hatch; all HMB dosage levels (0.1-100.0 milligrams)
Protocol: as §1, §2

[3] = Plasma glucose of turkey poults by HMB dosage injected in ovo (Example 10, FIG. 8); settings: turkey poults at hatch
Protocol: as §1, §2

In the case of CC(C)(O)CC(=O)O [HMB, beta-hydroxy-beta-methylbutyrate], the Hatchability rate ([1]; turkey eggs stored 3 weeks, 0.1 and 1.0 milligrams HMB in 0.1 ml saline into air cell at 24 days of incubation, control 72.3%) is reported as 81.6%, the “Hatchability rate (in words)” value ([1]; turkey eggs, HMB injected above 1.0 milligrams) is reported as “hatchability rate decreased” and the “Liver glycogen content, increase compared with the control treatment” value [2] is reported as “about 40%”. For the same compound, the “Plasma glucose concentration (in words)” value ([3]; 0.1 milligram HMB dosage) was “significantly increased plasma glucose concentration” and the “Plasma glucose concentration (in words)” value ([3]; other HMB dosage levels (1.0, 10.0, 100.0 milligrams)) was “no significant effect on plasma glucose”.
